Measured values from patent publication US6602673B2, “Huntingtin-related therapeutics and bioassay” (University of Massachusetts, priority 1996, dated 2003).

Test system: human fibroblasts
Assay: Brefeldin A (BFA) treatment of human fibroblasts, immunofluorescence localization of huntingtin, 58 kDa Golgi protein and tubulin
Assay type: cell-based
Description: For the studies described herein, fibroblasts from passage number 10-15 were plated onto coverslips and grown in culture for 24-48 hours. Cells were rinsed briefly with phosphate buffered saline (PBS) and fixed for 10 minutes with 4% paraformaldehyde in PBS at room temperature. After fixation, cells were rinsed multiple times and stored at 4° C. in PBS. Huntingtin was immunolocalized in human fibroblasts using an affinity purified anti-peptide antibody, Ab 2527, at 2-4 μg/ml. In selected experiments, cells were also labeled with a monoclonal antiserum that recognizes clathrin heavy chain (2 μg/ml, Biodesign Int., Kennebunk, Me.), the Golgi-associated 58 kDa protein (ascites serum diluted 1:100, Sigma Chemical Co., St. Louis, Mo.), or human transferrin receptor (5 μg/ml, Zymed Laboratories Inc., San Francisco, Calif.). Cells were made permeable by a 30 minute incubation in 0.1% Triton® X-100 in PBS, rinsed several times, and blocked with 5% normal goat serum for 60 minutes prior to incubation in primary antibodies. All incubations, whether performed with a single type of antibody or two types of antibodies, were carried out overnight at 4° C. and were followed by multiple rinses in PBS. Secondary antibodies were used at a 1:400 dilution. A pooled mixture of either Texas Red goat anti-mouse IgG (Molecular Probes Inc., Eugene, Oreg.) and Bodipy FL anti-rabbit IgG (Molecular Probes Inc, Eugene, Oreg.) or Texas Red goat anti-mouse IgM (Vector Laboratories, Burlingame, Calif.) and Bodipy FL anti-rabbit IgG were used. For immunoperoxidase labeling, cells were rinsed several times after the primary incubation and an avidin/biotin blocking procedure was performed prior to the incubation in secondary antibody. A Vectastain ABC™ kit (Vector Laboratories, Burlingame, Calif.) was employed to localize the primary antibody, and diaminobenzidine was used as a substrate for visualization of the peroxidase reaction product. Sections were examined using conventional immunofluorescence microscopy and a Biorad 1024 laser confocal microscope. Image processing was performed with Adobe Photoshop™.
To further establish the association of huntingtin with Golgi membranes, cells were treated with the fungal metabolite Brefeldin A (BFA).
Cells were briefly rinsed with Hank's balanced salt solution (HBSS) and then incubated in complete medium containing BFA (5 μg/ml; Gibco/BRL). The cells were incubated at either 18° C. or 37° C. for 10 minutes, then rinsed briefly with 50 mM phosphate buffered saline (PBS; pH 7.4) and fixed immediately for 10 minutes with 4% paraformaldehyde in PBS at room temperature.

## C[C@H]1CCC/C=C/[C@@H]2C[C@H](O)C[C@H]2[C@H](O)/C=C/C(=O)O1 [BFA, Brefeldin A]
Compared to untreated cells
  Distribution of tubulin in BFA-treated cells: unchanged
Mild BFA treatment, 5 μg for 10 min at 18° C., human fibroblasts
  Huntingtin localization after mild BFA treatment: fragmented and dispersed
More severe BFA treatment, human fibroblasts
  Huntingtin localization after more severe BFA treatment: obliterated
Normal fibroblasts, +bfa, FIGS. 3C and 3D
  Localization of huntingtin and the 58 kDa protein in the presence of bfa (figure legend): more widely dispersed from the nucleus and the Golgi-membrane architecture is disrupted
